From patent EP1388586A2, “Identification of broadly reactive DR restricted epitopes” (priority 1998, dated 1999)
Read-outs that look alike come from different tables or passages of the source. Square brackets hold non-standard residues; d marks the D form. Ends that are not written are not given here. Peptide text beside a SMILES is read from it.

What was measured:
DRB1*0101 (DR1) = target: T1, DRB1*0101 (DR1) (Homo sapiens, UniProt P01903+P01911, A100R/D57E/F55L/F60I/F76Y/I96L/L162R/M171V/P40L/Q125E/R42F/V115G/Y59C); experiment: Class II peptide-binding assay, DR1;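 also: competition assay: unlabeled test peptides inhibit binding of a radiolabeled probe peptide to purified DR, with half-maximal inhibition taken as an approximate dissociation constant Kd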
T1 construct: used as sources of human HLA class II molecules; endogenous in cells; host or cells: LG2 (EBV-transformed homozygous B cell line)

DRB5*0101 (DR2w2a) = target: T2, DRB5*0101 (DR2w2a) (Homo sapiens, UniProt P01903+Q30154); experiment: Class II peptide-binding assay, DR2w2a (DR2w2B2);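 also: competitive binding assay: unlabeled peptide inhibiting binding of a radiolabeled probe peptide to purified DR molecules at pH 7.0, IC50 approximating Kd, lower means stronger binding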
T2 construct: used as sources of human HLA class II molecules; endogenous in cells; host or cells: GM3107 (EBV-transformed homozygous B cell line)

DRB1*0401 (DR4w4) = target: T3, DRB1*0401 (DR4w4) (Homo sapiens, UniProt P01903+P01911, A100K/A169T/F76Y/I96L/K127E/L162R/M171V/N62H/P40V/Q125Y/R42H/S133A/S149N/S66Y/V115G/V209L/W38E); experiment: Class II peptide-binding assay, DR4w4;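 also: unlabeled test peptides compete with a radiolabeled probe peptide for binding to affinity-purified HLA-DR, with DR amount titrated to capture a small fraction of label, IC50 approximating Kd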
T3 construct: used as sources of human HLA class II molecules; endogenous in cells; host or cells: PREISS (EBV-transformed homozygous B cell line)

DRB10404 (DR4w14) = target: T4, DRB10404 (DR4w14) (Homo sapiens, UniProt P01903+P01911, A100R/A169T/F76Y/I96L/K127E/L162R/M171V/N62H/P40V/Q125Y/R42H/S133A/S149N/S66Y/V209L/W38E); experiment: Class II peptide-binding assay, DR4w14;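 also: unlabeled peptides compete with a radiolabeled probe for binding to affinity-purified HLA-DR, neutral pH, class II amount titrated to bind a small fraction of label, IC50 approximates Kd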
T4 construct: used as sources of human HLA class II molecules; endogenous in cells; host or cells: BIN40 (EBV-transformed homozygous B cell line)

DRB1*1101 (DR5w11) = target: T5, DRB1*1101 (DR5w11) (Homo sapiens, UniProt P01903+P01911, A100R/A169T/A87E/I96F/K41T/L162R/M171V/P40S/Q125H/Q178H/Q39Y/Q99D/R42S/S66Y/T262R/V115G/W38E); experiment: Class II peptide-binding assay, DR5w11;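 also: competition by unlabeled test peptide against iodinated probe peptide binding to affinity-purified HLA-DR, class II amount titrated beforehand, half-maximal inhibitory concentration read as approximate Kd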
T5 construct: used as sources of human HLA class II molecules; endogenous in cells; host or cells: SWEIG (EBV-transformed homozygous B cell line)
T5 sequence (P01903 26-254, other chains not shown): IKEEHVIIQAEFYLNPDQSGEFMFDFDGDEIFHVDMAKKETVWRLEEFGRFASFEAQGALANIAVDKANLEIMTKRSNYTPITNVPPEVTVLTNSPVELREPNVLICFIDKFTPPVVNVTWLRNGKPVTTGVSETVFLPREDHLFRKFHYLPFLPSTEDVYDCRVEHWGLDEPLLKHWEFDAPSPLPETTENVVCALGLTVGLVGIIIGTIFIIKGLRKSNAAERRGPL

DRB1*0701 (DR7) = DRB1*0701 (DR7) (Homo sapiens, UniProt P01903+P01911, A100R/A102G/A103Q/D57E/D86V/E43K/F76Y/K127E/L162R/M171V/P40G/Q125H/Q99D/R33Q/R42Y/R54Q/S133A/S66F/T210M/V115G/Y107V/Y59L/Y89S); experiment: Class II peptide-binding assay, DR7;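 also: unlabeled peptides compete with an iodinated probe peptide for binding to affinity-purified HLA-DR at neutral pH, DR amount titered to bind a small tracer fraction, IC50 approximating Kd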
[1] = read-out: DR1 nM (In IC50 Format), purified HLA DR1
[2] = read-out: DR2w2B2 nM (In IC50 Format), purified HLA DR2w2β2
[3] = read-out: DR4w4 nM (In IC50 Format), purified HLA DR4w4
[4] = read-out: DR4w14 nM (In IC50 Format), purified HLA DR4w14
[5] = read-out: DR5w11 nM (In IC50 Format), purified HLA DR5w11
[6] = read-out: DR7 nM (In IC50 Format), purified HLA DR7
[7] = read-out: DR1 nM, Table VIII, In IC50 Format
[8] = read-out: DR2w2B2 nM, Table VIII, In IC50 Format
[9] = read-out: DR4w4 nM, Table VIII, In IC50 Format
[10] = read-out: DR4w14 nM, Table VIII, In IC50 Format
[11] = read-out: DR5w11 nM, Table VIII, In IC50 Format
[12] = read-out: DR7 nM, Table VIII, In IC50 Format

Row | Compound | IC50 (DRB1*0101 (DR1); [1]) [µM] | IC50 (DRB5*0101 (DR2w2a); [2]) [µM] | IC50 (DRB1*0401 (DR4w4); [3]) [µM] | IC50 (DRB10404 (DR4w14); [4]) [µM] | IC50 (DRB1*1101 (DR5w11); [5]) [µM] | IC50 (DRB1*0701 (DR7); [6]) [µM] | further results
1 | YARFQSQATLKAKT-NH2 [Peptide 717.53] | 0.002 | 0.167 | 0.0092 | 0.0106 | 0.02 | 3.57 | 
2 | YARFQSQTTLKSKT-NH2 [Peptide 717.23] | 0.294 | 0.215 | 0.0028 | 0.0217 | 0.0253 | 8.33 | 
3 | YARFQSQTTLKAKE-NH2 [Peptide 717.28] | 0.0045 | 0.0952 | 0.0265 | 0.0128 | 0.0167 | 5 | 
4 | YARFQSQTTKKAKT-NH2 [Peptide 717.20] | 0.0111 | 0.087 | 0.0125 | 0.2 | 0.339 | 5 | 
5 | KYLATASTMDHARHGFLP [Peptide 765.02] | 50 | 10 | 0.1 | 0.0865 | 5 | 0.157 | 
6 | CC(C)C[C@H](NC(=O)[C@H](CCCCN)NC(=O)[C@H](CC(C)C)NC(=O)[C@@H](NC(=O)[C@H](CC(N)=O)NC(=O)[C@H](CCC(N)=O)NC(=O)[C@H](CCCCN)NC(=O)[C@@H](NC(=O)[C@H](Cc1ccc(O)cc1)NC(=O)[C@H](CCCCN)NC(=O)[C@@H]1CCCN1C(=O)[C@@H](N)CS)C(C)C)[C@@H](C)O)C(=O)N[C@@H](C)C(=O)N[C@H](C(=O)NCC(=O)O)[C@@H](C)O [Peptide 852.01] |  |  |  |  |  |  | IC50 (DRB1*0101 (DR1); [7]): 0.0316 µM; IC50 (DRB5*0101 (DR2w2a); [8]): 0.0029 µM; IC50 (DRB1*0401 (DR4w4); [9]): 0.03 µM; IC50 (DRB10404 (DR4w14); [10]): 7.14 µM; IC50 (DRB1*1101 (DR5w11); [11]): 0.0392 µM; IC50 (DRB1*0701 (DR7); [12]): 0.0658 µM
7 | C[C@H](NC(=O)[C@H](N)Cc1ccc(O)cc1)C(=O)N[C@@H](C)C(=O)N[C@@H](Cc1ccccc1)C(=O)N[C@@H](C)C(=O)N[C@@H](C)C(=O)N[C@@H](C)C(=O)N[C@@H](C)C(=O)N1CCC[C@H]1C(=O)N[C@@H](CCCCN)C(=O)N[C@@H](C)C(=O)N[C@@H](C)C(=O)N[C@@H](C)C(=O)N[C@H](C)C(N)=O [Peptide 828.06] (H-[dY]AAFAAAAPKAAA[dA]-NH2) |  |  |  |  |  |  | IC50 (DRB1*0101 (DR1); [7]): 0.002 µM; IC50 (DRB5*0101 (DR2w2a); [8]): 0.019 µM; IC50 (DRB1*0401 (DR4w4); [9]): 0.214 µM; IC50 (DRB10404 (DR4w14); [10]): 10 µM; IC50 (DRB1*1101 (DR5w11); [11]): 0.235 µM; IC50 (DRB1*0701 (DR7); [12]): 1.92 µM
8 | YARFNSQTTLKAKT-NH2 [Peptide 717.44] | 0.005 | 0.08 | 0.0042 | 0.0074 | 0.0328 | 5 | 
9 | YARFQSQTTLKART-NH2 [Peptide 717.25] | 0.0045 | 0.0645 | 0.0012 | 0.0106 | 0.0133 | 4.17 | 
10 | ARRLKAIYARRLK [Peptide 640.04] |  |  |  |  |  |  | IC50 (DRB1*0101 (DR1); read-out: In IC50 Format DR1, Table VIII): 0.0036 µM; IC50 (DRB5*0101 (DR2w2a); read-out: In IC50 Format DR2w2β2, Table VIII): 0.0087 µM; IC50 (DRB1*0401 (DR4w4); read-out: In IC50 Format DR4w4, Table VIII): > 22.5 µM; IC50 (DRB10404 (DR4w14); read-out: In IC50 Format DR4w14, Table VIII): 0.667 µM; IC50 (DRB1*1101 (DR5w11); read-out: In IC50 Format DR5w11, Table VIII): 0.667 µM; IC50 (DRB1*0701 (DR7); read-out: In IC50 Format DR7, Table VIII): 0.0292 µM
11 | YARFQSQTTIKAKT-NH2 [Peptide 717.19] | 0.0057 | 0.143 | 0.0032 | 0.0192 | 0.0303 | 2.08 | 
12 | YAAFQSQTTLKAKT-NH2 [Peptide 717.30] | 0.0087 | 0.105 | 0.0076 | 0.0075 | 0.0222 | 4.17 | 
13 | YARFQSQTALKAKT-NH2 [Peptide 717.52] | 0.0022 | 0.0154 | 0.0046 | 0.0313 | 0.0333 | 1.14 | 
14 | YARFQSQTSLKAKT-NH2 [Peptide 717.31] | 0.0045 | 0.143 | 0.0051 | 0.0106 | 0.02 | 0.676 | 
15 | CC(C)C[C@H](NC(=O)[C@@H](NC(=O)[C@@H](NC(=O)[C@H](CCC(N)=O)NC(=O)[C@H](CO)NC(=O)[C@H](CCC(N)=O)NC(=O)[C@H](Cc1ccccc1)NC(=O)[C@H](C)NC(=O)[C@H](C)NC(=O)[C@H](N)Cc1ccc(O)cc1)[C@@H](C)O)[C@@H](C)O)C(=O)N[C@@H](CCCCN)C(=O)N[C@@H](C)C(=O)N[C@@H](CCCCN)C(=O)N[C@@H](C(N)=O)[C@H](C)O [Peptide 858.04] (H-[dY]AAFQSQTTLKAK[dT]-NH2) |  |  |  |  |  |  | IC50 (DRB5*0101 (DR2w2a); [8]): 0.141 µM; IC50 (DRB1*0401 (DR4w4); [9]): 0.0045 µM; IC50 (DRB10404 (DR4w14); [10]): 0.0156 µM; IC50 (DRB1*1101 (DR5w11); [11]): 0.0196 µM; IC50 (DRB1*0701 (DR7); [12]): 25 µM
16 | LMQYIKANSKFIGITE [Peptide 812.03] |  |  |  |  |  |  | IC50 (DRB1*0101 (DR1); purified HLA DR1, read-out: DR1 nM (In IC50 Format)): 0.0132 µM; IC50 (DRB5*0101 (DR2w2a); purified HLA DR2w2β2, read-out: DR2w2B2 nM (In IC50 Format)): 0.0049 µM; IC50 (DRB1*0401 (DR4w4); purified HLA DR4w4, read-out: DR4w4 nM (In IC50 Format)): 0.15 µM; IC50 (DRB10404 (DR4w14); purified HLA DR4w14, read-out: DR4w14 nM (In IC50 Format)): 0.0658 µM; IC50 (DRB1*1101 (DR5w11); purified HLA DR5w11, read-out: DR5w11 nM (In IC50 Format)): 0.0139 µM; IC50 (DRB1*0701 (DR7); purified HLA DR7, read-out: DR7 nM (In IC50 Format)): 0.0119 µM
17 | AAFAAAAAQRLFA-NH2 [Peptide 761.01] | 0.0023 | 0.0012 | 0.03 | 3.33 | 0.556 | 0.0076 | 
18 | YSRFQSQTTLKAKT-NH2 [Peptide 717.38] | 0.0061 | 0.274 | 0.01 | 0.0152 | 0.0167 | 6.25 | 
19 | YIAFLKQATAKLAT [Peptide 723.01] | 0.0049 | 0.069 | 0.0167 | 0.746 | 0.0305 | 0.0156 | 
20 | YARFQSQTTLKAKT [Peptide 717.67] | 0.0036 | 0.167 | 0.006 | 0.0111 | 0.0074 | 1.39 | 
21 | YAEFQSQTTLKAKT-NH2 [Peptide 717.41] | 0.0238 | 0.667 | 0.0321 | 0.0658 | 0.0385 | 25 | 
22 | YARFQSQTTLKAAT-NH2 [Peptide 717.49] | 0.0021 | 0.118 | 0.0066 | 0.0071 | 0.0063 | 4.17 | 
